From paper PMC3715805 (International Journal of Molecular Sciences, 2007)

Target: T1, cyclooxygenase-1 (COX-1) (Ovis aries, UniProt P05979)
T1 sequence (P05979 25-600): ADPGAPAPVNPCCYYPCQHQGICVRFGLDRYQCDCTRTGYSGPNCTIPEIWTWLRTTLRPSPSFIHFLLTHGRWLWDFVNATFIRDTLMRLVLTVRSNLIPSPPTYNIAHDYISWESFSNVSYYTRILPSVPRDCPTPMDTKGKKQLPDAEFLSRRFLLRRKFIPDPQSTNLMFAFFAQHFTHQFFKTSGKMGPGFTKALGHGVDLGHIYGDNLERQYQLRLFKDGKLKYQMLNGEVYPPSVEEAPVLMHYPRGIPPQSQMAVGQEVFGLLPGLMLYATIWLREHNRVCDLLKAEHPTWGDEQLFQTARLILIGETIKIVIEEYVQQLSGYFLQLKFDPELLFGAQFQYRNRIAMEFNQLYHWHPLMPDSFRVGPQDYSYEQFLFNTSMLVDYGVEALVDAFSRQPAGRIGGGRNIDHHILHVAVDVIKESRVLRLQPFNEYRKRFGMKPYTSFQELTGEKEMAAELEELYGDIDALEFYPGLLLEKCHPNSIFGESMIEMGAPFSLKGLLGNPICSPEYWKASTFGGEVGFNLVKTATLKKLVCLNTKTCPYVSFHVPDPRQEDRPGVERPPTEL
Experiment: O2 consumption
Type: biochemical

## COc1cc(O)c2c(=O)cc(-c3ccc(OC)c(-c4c(O)cc(O)c5c(=O)cc(-c6ccc(O)cc6)oc45)c3)oc2c1 [compound 1, ginkgetin]
  IC50: > 100 µM
